Assays:
[1] = Dosing formulation storage and stability; assay type: physicochemical; conditions: 0.6 mg/mL in saline, frozen at -20 C
Protocol: Test Article Formulation Instructions & Calculations: Peptide dosing solution (0.2 mg/mL) was made fresh daily within 1 hour of use by diluting 0.09 mL of 5 mg/mL DMSO stock into 2.11 mL sterile saline. DMSO stock was kept at 4 C, then refrozen (to avoid repeated freeze-thaw cycles). Still, stock was relatively “solid” even at 4 C.
MLA antagonist dosing solution (0.6 mg/mL) was made on Day 2 by diluting the entire 5 mg in the sealed vial with 8.3 mL of sterile saline and aliquoting out ˜1.1 mL in each of seven 2 mL cryovials and freezing at −20 C. Four vials were used in the experiment, each thawed within 1 hour of use. Three vials remain frozen.
Dosing Formulations and Vehicle Storage & Stability: Saline vehicle is stable at 4 C for months. Peptide dosing solutions were made up and used fresh daily. […] MLA frozen “stock” solutions were stable for up to 1 month.

CLIP+ B cells = assay: CFA-induced arthritis model, CAP depletion of B cells with or without α7nAChR antagonist; assay type: in vivo, mice; conditions: co-treated with CAP, CFA model
Protocol: FIGS. 11A-11B. […] In this study, CAP was administered at 3 days after CFA, then once daily every 3 days, until day 10 after CFA.
The next series of experiments are focused on the effects of CAP on splenic immune cells. […] As part of this experiment, the mice were co-treated with CAP and the alpha-7 nicotinic acetylcholine receptor (α7nAChR) antagonist, methyllycaconitine (MCA).

splenic B cells [2] = assay: CFA-sensitized mice treated with Peptide with or without MLA, FACS of splenic B cells; assay type: in vivo
Protocol: SUMMARY: A study was conducted to evaluate a potential alpha7 nAChR anti-inflammatory mechanism of the MKR-4 peptide, using the alpha7 nAChR antagonist methyllycaconitine (MLA). After enrollment, animals in Groups 2-4 were sensitized ID at the base of the tail with 0.1 mL FCA on Day 1. On Days 2, 3, 5 & 7 Groups were then dosed intraperitoneally (IP) with either: peptide and MLA in combination (2 mg/kg and 6 mg/kg, respectively); peptide (2 mg/kg) and MLA vehicle (saline) in combination; or peptide vehicle (saline) and MLA vehicle (saline). Animals were dosed once on Study Day 2 (MLA or MLA vehicle), and Days 3, 5 & 7 (Peptide or Peptide vehicle, MLA or MLA vehicle) as described in Table 2 below. Body weights were recorded on Study Days 0 & 8. Mice were euthanized for necropsy on Study Day 8, and serum and whole spleens were collected from all animals and sent to the sponsor for internal FACS analysis. Toxicity and Peptide mechanistic evaluation was based on absolute body weight change, spleen weights and sponsor FACS analysis (not included in report).
Antibodies and Flow Cytometry. Single cell suspensions were made of tissues or cells harvested from culture and stained with the following monoclonal antibodies: a monoclonal antibody directed against mouse alpha 7 nicotinic acetylcholine receptor (alpha 7 nAChR) (Santa Cruz Biotechnology); anti-mouse MHC Class II (M5114), and anti-mouse CLIP 15G4, Santa Cruz. Following staining, cells were analyzed comparing each level of staining to the appropriate isotype control on a Beckman Coulter Cytoflex benchtop flow cytometer. Data was analyzed using FlowJo software (Tree Star Inc.).
Experimental Design: On Study Day 0, mice were weighed and randomized by body weight into treatment groups. Following randomization, on Study Day 1, Groups 2-4 were sensitized ID at the base of the tail with 0.1 mL of FCA. When MLA and Peptide (FRIMAVLAS (SEQ ID NO: 389))—or their vehicles—were dosed on the same day, the MLA antagonist or vehicle was dosed 1 hour before the Peptide or its vehicle.
On Study Day 8, mice were anesthetized with Isoflurane (VetOne, Cat #502017) and bled to exsanguination followed by cervical dislocation for necropsy and tissue collection.

CD8+ T cells = assay: CAP-induced expansion of CD8+ T cells with or without α7nAChR antagonist; assay type: in vivo; conditions: with CAP
splenic B cells [3] = assay: alpha 7 nAChR expression on splenic B cells after TLR 9 agonist CpG (flow cytometry); assay type: cell-based, mouse; conditions: after CpG treatment
Protocol: Cell Culture. Mice were sacrificed and spleens were removed. The tissues were dissociated, from which single cell suspensions were made by passing the spleens through 40 μm cell strainers. Red blood cells were lysed using ACK Buffer (Sigma, Inc). Cells were then cultured with TLR ligands at the designated concentrations at 1.010^6 cells/mL in 6 well plates. Cells were grown in RPMI 1640 (Invitrogen) supplemented with 5% fetal bovine serum (Invitrogen) in a humidified 5% CO2 incubator at 37° C. for the designated time period.
Isolation of Splenic Cells. Splenocytes were isolated from 8 week old C57BL/6J mice. Following sacrifice, spleens were removed and splenocytes isolated as above. Cells were then resuspended in complete RPMI and were cultured with the TLR ligands at the designated concentrations at 10^6 cells/mL in 6 well plates. […]
Antibodies and Flow Cytometry. […] Following staining, cells were analyzed comparing each level of staining to the appropriate isotype control on a Beckman Coulter Cytoflex benchtop flow cytometer. Data was analyzed using FlowJo software (Tree Star Inc.).
In FIG. 1A the X-axis represents fluorescence intensity of MHC class II expression on untreated splenic B cells from a C57BL6 mouse. […] The X axis reflects the relative fluorescence intensity before (green histogram) and after treatment with the TLR 9 agonist CpG (blue histogram).

[4] = test system: blood brain barrier (BBB); assay: Intravital microscopy of BBB permeability and lymphocyte adhering/rolling in pial venules; assay type: in vivo, C57 BL/6J mice; conditions: P3C i.p., 24 hours
Excerpt: Whether intranasal infection with Streptococcus pyogenes would induce blood-brain barrier permeability in C57 BL/6J mice by a TLR-dependent mechanism was examined. Immediately following craniotomy, mice were placed under an intravital microscope to study vascular permeability and leukocytes. Permeability of cerebral blood vessels was observed using FITC-dextran fluorescent dye and, tracing of leukocytes is observed by labeling such cells with Rhodamine-6G. Intranasal infection with Streptococcus pyogenes (gram positive) increased BBB permeability (FIG. 4) and the number of adherent or rolling lymphocytes (FIG. 4) within 24 hours post-infection, compared to saline treated controls.
Methods: To test the hypothesis that intranasal infection may increase BBB permeability, we exposed mice to GAS via intranasal infection with Streptococcus pyogenes (GAS). We assessed BBB permeability using intravital microscopy, and we characterized the immune response to GAS using flow cytometric analysis of nasal associated lymphoid tissue (NALT), spleen, and brain.
Intranasal infection: Isoflurane gas was employed to briefly anesthetize mice (1-2 minutes). Once anesthetized, 7.5 uL of streptococcal bacterial suspension (OD600=0.5-0.6) was placed on each nares (outer nostril) of mouse. Control mice received intranasal inoculation with vehicle (PBS). The droplets were inhaled into nasal sinuses. This small volume avoids inoculation of the lungs, but reproducibly results in colonization of nasal-associated lymphoid tissue (NALT, Park 2003; Wang 2010).
Intraperitoneal injection: The TLR 1/2 agonist, Pam-3-Cys (25 ug/mouse; Pam3CSK4, InvivoGen, San Diego Calif.) was intraperitoneally (right side) injected into mice 24 hours before intravital microscopy. P3C causes immune cell activation and polycolonal expansion of B-lymphocytes by Toll-Like receptor ligation (Newell 2010). Control mice received equal volume of vehicle (PBS) intraperitoneally.
MHC class II-targeted proprietary peptide (TPP, Elim Biopharmaceuticals Inc., Hayward Calif.; also see Newell 2010) was administered intraperitoneally (5 ug/mouse, left side), sometimes in conjunction with P3C (right side). TPP was dissolved in DMSO for a final concentration of 2.5% DMSO in PBS. Control mice received vehicle (2.5% DMSO in PBS) intraperitoneally.
Preparation of Mice: Mice were anesthetized with an (i.p.) injection of 50% urethane (Sigma-Aldrich, U2500) in PBS ([…]) and maintained on heating pad. Anesthetic plane was assessed throughout preparation and experiments, by response to toe pinch. If needed, urethane supplement was given at 10% of original dose volume. To prepare mice tails for intravenous (i.v.) dye injection we maintained anesthetized mice on a heating pad for 10-15 minutes, and then briskly wiped tails (toward tail-end) with 70% ethanol wipes to remove scales/hair and increase vasodilation. Immediately following tail wiping, Fluorescein dextran 10 kDa (10 mg/mL, Sigma-Aldrich, FD10S) was administered (2 uL/g mouse) via right lateral tail vein and, Rhodamine 6G (0.2 mg/mL, Sigma-Aldrich, 83697) was administered (1.6 uL/g mouse) via left lateral tail vein. When needed, tail was wiped multiple times to ensure clear visualization of tail veins. Following successful (i.v.) injection of dyes, mice underwent craniotomy.
Craniotomy: A craniotomy (removal of a small area of skull) was performed to expose the cerebrum and allow imaging of cerebral microvasculature (specifically pial vessels of pia mater). First, an incision across the midline of the scalp was made to expose the right parietal bone. The skull was then carefully marked with a waterproof marker, designating the area, 1 mm posterior from the Bregma and 4 mm lateral from the midline, to be removed (craniotomy diameter: 2.5 mm). Next, the craniotomy was performed with a drill ensuring the dura mater was not cut. […]

Compound: CCN1C[C@]2(COC(=O)c3ccccc3N3C(=O)C[C@H](C)C3=O)CC[C@H](OC)[C@@]34[C@@H]5C[C@H]6[C@H](OC)[C@@H]5[C@](O)(C[C@@H]6OC)[C@@](O)([C@@H](OC)[C@H]23)[C@@H]14 [MLA, methyllycaconitine, reference compound]
- stability of frozen stock solutions [1]: up to 1 month
- effect of α7nAChR antagonist on CAP-induced decrease in B cell expansion (CLIP+ B cells): reversed
- effect of α7nAChR antagonist on CAP-induced decrease in B cell expansion (CLIP+ B cells; listed as MCA): prevented
- effect of MLA on Peptide induced reduction in CLIP+ B cells (splenic B cells [2]; CFA treated mice, MLA 6 mg/kg IP 1 hour before Peptide): reversed
- percentage of splenic B cells (splenic B cells [2]; CFA treated, Peptide treated (2 mg/kg) and treated with MLA (6 mg/kg IP)): 44.8%
- effect of α7nAChR antagonist on CAP-induced CD8+ T cell expansion (CD8+ T cells): reversed
- effect of α7nAChR antagonist on CAP-induced CD8+ T cell expansion (CD8+ T cells; listed as MCA): blocked

Compound: 5′-tcgtcgttttgtcgttttgtcgtt-3′ [CpG]
- relative level of expression of nAChR per cell (splenic B cells [3]): increases
- total splenocytes that express alpha 7 nAChR (splenic B cells [3]; untreated 9%): 37.6%

Compound: Pam-3-Cys [P3C, reference compound]
- largest observed diameter of adherent lymphocytes [4]: 15 um
- number of rolling lymphocytes ([4]; vs control, p<0.01): significantly increased
- number of adherent lymphocytes ([4]; vs control, p<0.05): significantly increased
- average diameter of adherent lymphocytes ([4]; control 5 um): 10 um
